Laboratory results as given in patent USRE43280E1, “Hyperforin derivatives, the use thereof and formulations containing them” (Indena S.p.A., priority 2002, dated 2012).
Read-outs that look alike come from different tables or passages of the source.

Columns and labels:
rat = assay: forced swimming test (struggling, floating, swimming); assay type: in vivo; settings: 3 doses: 30 minutes after the pre-test, 5 hours and 30 minutes before the test
Procedure: The compounds were administered in 3 doses: 30 minutes after the pre-test, 5 hours and 30 minutes before the test.

[1] = system: APPs produced by α-secretase in neuroblastoma cell line (SH-SY5Y); assay: release of APPs produced by α-secretase into the culture medium of SH-SY5Y cells; assay type: cell-based
[2] = 10 μM, SH-SY5Y culture medium, controls = 100

Row | Compound | Floating (rat; 6.25 mg/Kg) [s] | Struggling (rat; 6.25 mg/Kg) [s] | Swimming (rat; 6.25 mg/Kg) [s] | APPs % [1, 2] [%] | Floating (rat; 10 mg/Kg) [s] | Struggling (rat; 10 mg/Kg) [s] | Swimming (rat; 10 mg/Kg) [s] | APPs % [1] [%]
1 | CC(=O)OC1=C(CCC(C)C)C(=O)[C@@]2(CCC(C)C)C[C@H](CCC(C)C)[C@@](C)(CCCC(C)C)[C@]1(C(=O)C(C)C)C2=O [Acetyloctahydrohyperforin, acetyloctahydrohyperforin] | 68.4 ± 5.7 | 73.9 ± 5.9 | 171.9 ± 11.4 | 954 | – | – | – | –
2 | CNCCCN1c2ccccc2CCc2ccccc21 [Desipramin, reference compound] | – | – | – | – | 53.0 ± 9.2 | 148.3 ± 12.6 | 98.8 ± 7.9 | –
3 | CC(C)=CCC[C@]1(C)[C@@H](CC=C(C)C)C[C@@]2(CC=C(C)C)C(=O)[C@]1(C(=O)C(C)C)C(=O)C(CC=C(C)C)=C2O [Hyperforin] | 60.4 ± 7.3 | 30.4 ± 4.6 | 99.3 ± 10.6 | – | – | – | – | 296
4 | dodecahydrohyperforin | 55.1 ± 6.2 | 62.13 ± 5.1 | 169.5 ± 10.1 | 879 | – | – | – | –
5 | octahydrohyperforin lithium salt | 59.5 ± 11.3 | 63.1 ± 5.8 | 177.4 ± 14.9 | 1383 | – | – | – | –
6 | tetrahydrohyperforin | 68.4 ± 7.6 | 51.4 ± 4.1 | 193.4 ± 13.2 | 926 | – | – | – | –
